In patent US10912780B2, “Heterocyclic compounds useful as anti-bacterial agents and method for production thereof” (Bugworks Research, Inc., priority 2017, dated 2021):
≈ marks a conversion by molar mass, not a printed value. Where “and” joins values, the source holds several entries; their conditions need not be identical. Identical values can stand only once.

Legend:
[1] = In vivo pharmacokinetic studies in rats, 1 hr intravenous infusion; conditions: for AUC(0-t) / AUC(0-inf) / Cmax / Tmax / clearance / half-life / Vd: male, Sprague-Dawley, rat, iv; for Vd: male SD rats, 1 h IV infusion
[2] = tested on: E. cloacae clinical strains; test: Antibacterial susceptibility studies (MIC50 and MIC90) with clinical strains, CLSI guidelines; type: cell-based
[3] = tested on: E. coli clinical strains; test: as above; type: cell-based
[4] = molecular target: E. coli DNA gyrase (Escherichia coli, UniProt P0AES4+P0AES6); test: biochemical; conditions: supercoiling assay
[5] = tested on: P. aeruginosa clinical strains; test: Antibacterial susceptibility studies (MIC50 and MIC90) with clinical strains, CLSI guidelines; type: cell-based
[6] = tested on: E. coli [ATCC25922]; test: Urinary tract infection (UTI) rat model; type: in vivo; conditions: for MEAN ± SD (Log10 CFU/g kidneys) / Mean Log10 CFU/g kidney reduction (wrt 4 h PI control: 6.03 Log10 CFU/g kidneys) / MEAN ± SD (Log 10 CFU/ml Bladder) / Mean Log10 CFU/ml Bladder reduction (wrt 4 h PI control: 6.49 CFU/ml Bladder) / Log10 CFU/g (Left Kidney) / Log10 CFU/g (Right Kidney) / Log 10 CFU/ml Bladder: i.v., 1 h infusion, rat UTI, 24 h post infection; for Log10 CFU/g (Left Kidney) / Log10 CFU/g (Right Kidney) / Log 10 CFU/ml Bladder: individual animals
Experimental: The purpose of this study is to assess the efficacy of Example 15 against E. coli [ATCC25922] following single dose intravenous infusion doses of 3, 10 and 30 mg/kg in a Urinary Tract Infection Rat Model
Prior to the start of the infection process all animals were divided into different groups. All grouped cages of animals were carried to a procedure room, close to a biological safety cabinet. All infections were conducted in a biological safety cabinet, with appropriate personnel protection. Animals were anaesthetized by intraperitoneal injection of ketamine & xylazine (60+10 mg/kg i.p.) cocktail. Once the animals were in a sufficiently deep plane of anaesthesia as monitored by pedal reflex, the abdominal wall of each rat was shaved with electric clippers and the skin was cleansed with 10% povidine iodine. After a 1.5 to 2 cm lower abdominal wall incision, the abdominal wall muscles were separated with blunt dissection. […] After the replacement of the bladder to its original location, the abdominal muscles were approximated using suture and the skin was closed. The wounds were cleansed using 10% povidine iodine.
The IV formulation vehicle used was 10% of L-ascorbic acid in fresh MilliQ water (w/v) with pH adjusted to 4.0 with 1N Sodium hydroxide solution (w/v), and the dose volume was 10 mL/kg. Meropenem was prepared in MilliQ water and the pH of solution was adjusted to 4.5 using HCl. Four hours post infection, animals were dosed intravenously, as single doses (for test compounds), as a constant rate infusion, under Ketamine 60 mg/kg IP+Xylazine 10 mg/kg IP anesthesia, at a dose volume of 10 ml/kg, at the rate of 0.03 ml/min. The dose levels of the test compounds were 3, 10 and 30 mg/kg. Meropenem was administered as a single bolus dose at a dose volume of 5 ml/kg. All the animals were sacrificed at 24 h post infection, as specified in experimental design, by an overdose of CO2 in an appropriate exposure chamber. The group 1 animals were sacrificed at 4 h post infection.
The euthanized animals were dipped into 70% ethanol for surface decontamination. The organs were removed aseptically; the bladder was cut away near the urethra, and the kidneys were removed by blunt dissection to avoid bleeding. The bladder and each kidney separately were be homogenized in PBS. The CFU per milliliter homogenate of bladder, & kidney were determined after 18 to 24 h of incubation at 37° C.

[7] = Enterobacter cloacae, E. cloacae clinical strains (88 strains)

Chain of E. coli DNA gyrase (P0AES4 whole entry, one chain of several): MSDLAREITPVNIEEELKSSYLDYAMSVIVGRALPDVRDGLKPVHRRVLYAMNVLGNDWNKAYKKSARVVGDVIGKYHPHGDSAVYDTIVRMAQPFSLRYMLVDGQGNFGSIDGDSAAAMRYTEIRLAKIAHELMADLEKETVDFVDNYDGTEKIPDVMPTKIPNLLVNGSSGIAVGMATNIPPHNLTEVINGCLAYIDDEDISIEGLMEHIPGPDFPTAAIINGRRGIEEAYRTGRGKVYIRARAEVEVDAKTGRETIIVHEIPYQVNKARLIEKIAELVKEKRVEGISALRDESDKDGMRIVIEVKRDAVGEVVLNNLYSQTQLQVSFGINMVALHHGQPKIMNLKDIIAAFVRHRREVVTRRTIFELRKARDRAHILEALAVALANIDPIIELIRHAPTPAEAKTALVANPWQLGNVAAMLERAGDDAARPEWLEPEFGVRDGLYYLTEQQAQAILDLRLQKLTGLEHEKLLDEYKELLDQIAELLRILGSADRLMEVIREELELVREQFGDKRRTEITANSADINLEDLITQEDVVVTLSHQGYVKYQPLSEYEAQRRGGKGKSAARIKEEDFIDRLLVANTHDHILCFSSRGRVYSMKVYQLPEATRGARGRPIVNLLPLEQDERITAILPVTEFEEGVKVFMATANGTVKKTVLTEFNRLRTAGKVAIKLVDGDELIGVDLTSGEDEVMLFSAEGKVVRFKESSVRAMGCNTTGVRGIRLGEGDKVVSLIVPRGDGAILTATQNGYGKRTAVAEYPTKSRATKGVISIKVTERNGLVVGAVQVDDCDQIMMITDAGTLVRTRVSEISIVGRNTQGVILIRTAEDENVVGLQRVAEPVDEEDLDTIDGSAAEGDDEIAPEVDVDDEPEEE

For Cn1c(=O)ccc2ccc(F)c(CCNC[C@H]3CN(c4cnc5c(n4)NC(=O)CO5)C(=O)O3)c21 [Example 15, (S)-6-(5-(((2-(7-fluoro-1-methyl-2-oxo-1,2-dihydroquinolin-8-yl)ethyl)amino)methyl)-2-oxooxazolidin-3-yl)-2H-pyrazino[2,3-b][1,4]oxazin-3(4H)-one], the “clearance (in words)” value ([1]; SD rats, 1 hr IV infusion) was “moderate”, the “half life (in words)” value ([1]; SD rats, 1 hr IV infusion) was “short” and the “volume of distribution (in words)” value ([1]; SD rats, 1 hr IV infusion) was “low”. The “AUC and Cmax versus dose (in words)” value ([1]; SD rats, IV infusion at 5, 10, 30 & 100 mg/kg) was “Dose proportional increase”, the AUC(0-t) ([1]; in vivo) was 104000 ± 7300 ng·h/mL and the AUC(0-inf) ([1]; in vivo, 30 mg/kg) was 14700 ± 200 ng·h/mL. The AUC(0-t) ([1]; in vivo, 30 mg/kg) was 14700 ± 200 ng·h/mL, the Cmax ([1]; in vivo, 30 mg/kg) was 15200 ± 2200 ng/mL and the Tmax ([1]; in vivo, 30 mg/kg) was 1 h. It also gave a clearance ([1]; in vivo, 30 mg/kg) of 34 mL/min/kg, a half-life ([1]; in vivo, 30 mg/kg) of 0.96 ± 0.02 h and a Vd ([1]; in vivo, 30 mg/kg, Vd) of 2.83 ± 0.09 L/kg. It also gave a Vd ([1]; in vivo, 30 mg/kg, Vss, 30 mg/kg) of 0.84 ± 0.06 L/kg, an AUC(0-inf) ([1]; in vivo, 100 mg/kg) of 73700 ± 15300 ng·h/mL and an AUC(0-t) ([1]; in vivo, 100 mg/kg) of 73700 ± 15300 ng·h/mL. The Cmax ([1]; in vivo, 100 mg/kg) was 62600 ± 6700 ng/mL, the Tmax ([1]; in vivo, 100 mg/kg) was 1 h and the clearance ([1]; in vivo, 100 mg/kg) was 23.3 mL/min/kg. It also gave a half-life ([1]; in vivo, 100 mg/kg) of 4.93 ± 0.5 h, a Vd ([1]; in vivo, 100 mg/kg, Vd) of 9.86 ± 1.68 L/kg and a Vd ([1]; in vivo, 100 mg/kg, Vss, 100 mg/kg) of 0.9 ± 0.05 L/kg. It also gave an AUC(0-inf) ([1]; in vivo, 150 mg/kg) of 104000 ± 7300 ng·h/mL, a Cmax ([1]; in vivo, 150 mg/kg) of 101000 ± 146000 ng/mL and a Tmax ([1]; in vivo, 150 mg/kg) of 1 h. For the same molecule, the clearance ([1]; in vivo, 150 mg/kg) was 24.2 mL/min/kg, the half-life ([1]; in vivo, 150 mg/kg) was 6.17 ± 0.42 h and the Vd ([1]; in vivo, 150 mg/kg, Vd) was 12.9 ± 1 L/kg. The Vd ([1]; in vivo, 150 mg/kg, Vss, 150 mg/kg) was 0.86 ± 0.04 L/kg, the AUC(0-inf) ([1]; plasma, 5 mg/kg) was 1700 ± 50 ng·h/mL and the AUC(0-t) ([1]; plasma, 5 mg/kg) was 1700 ± 50 ng·h/mL. For the same molecule, the Cmax ([1]; plasma, 5 mg/kg) was 2400 ± 60 ng/mL, the Tmax ([1]; plasma, 5 mg/kg) was 0.77 ± 0.01 h and the clearance ([1]; plasma, 5 mg/kg) was 48.7 mL/min/kg. It also gave a half-life ([1]; plasma, 5 mg/kg) of 0.53 ± 0.03 h, a Vd ([1]; plasma, 5 mg/kg, Vd) of 2.21 ± 0.012 L/kg and a Vd ([1]; plasma, 5 mg/kg, Vss, 5 mg/kg) of 0.91 ± 0.05 L/kg. It also gave an MIC50 [2, 7] of 0.25 µg/mL (≈ 0.534 µM), an MIC90 [2, 7] of 1 µg/mL (≈ 2.13 µM) and a Minimum ([2]; lowest MIC among E. cloacae clinical strains (88 strains), no unit in this line) of 0.03. The MIC ATCC25922 ([3]; E. coli reference strain ATCC25922, no unit in this line (MIC50/MIC90 lines: μg/ml)) was 0.06 µg/mL (≈ 0.128 µM), the MIC50 ([3]; Escherichia coli) was 0.06 µg/mL (≈ 0.128 µM) and the MIC90 ([3]; Escherichia coli) was 0.25 µg/mL (≈ 0.534 µM). The Minimum ([3]; lowest MIC among E. coli clinical strains (201 strains; Example 15: 176), no unit in this line) was 0.03, the IC50 [4] was 4.6 nM and the MIC ATCC27853 ([5]; P. aeruginosa reference strain ATCC27853, no unit in this line) was 0.25 µg/mL (≈ 0.534 µM). For the same molecule, the MIC50 ([5]; Pseudomonas aeruginosa) was 0.5 µg/mL (≈ 1.07 µM), the MIC90 ([5]; Pseudomonas aeruginosa) was 1 µg/mL (≈ 2.13 µM) and the Minimum ([5]; lowest MIC among P. aeruginosa clinical strains (215 strains; Example 15: 176), no unit in this line) was 0.03. The “MEAN ± SD (Log10 CFU/g kidneys)” value ([6]; 3 mg/kg) was 7.13 ± 0.62 Log10 CFU/g kidneys, the “Mean Log10 CFU/g kidney reduction (wrt 4 h PI control: 6.03 Log10 CFU/g kidneys)” value (“Mean Log10 CFU/g kidney reduction” for short) ([6]; 3 mg/kg) was −1.1 Log10 CFU/g kidneys and the “MEAN ± SD (Log 10 CFU/ml Bladder)” value ([6]; 3 mg/kg) was 7.01 ± 0.23 Log 10 CFU/ml. For the same molecule, the “Mean Log10 CFU/ml Bladder reduction (wrt 4 h PI control: 6.49 CFU/ml Bladder)” value (“Mean Log10 CFU/ml Bladder reduction” below) ([6]; 3 mg/kg) was −0.52 Log10 CFU/ml, the “MEAN ± SD (Log10 CFU/g kidneys)” value ([6]; 10 mg/kg) was 5.82 ± 0.94 Log10 CFU/g kidneys and the “Mean Log10 CFU/g kidney reduction” value ([6]; 10 mg/kg) was 0.21 Log10 CFU/g kidneys. The “MEAN ± SD (Log 10 CFU/ml Bladder)” value ([6]; 10 mg/kg) was 5.85 ± 0.27 Log 10 CFU/ml, the “Mean Log10 CFU/ml Bladder reduction” value ([6]; 10 mg/kg) was 0.64 Log10 CFU/ml and the “MEAN ± SD (Log10 CFU/g kidneys)” value ([6]; 30 mg/kg) was 4.46 ± 0.52 Log10 CFU/g kidneys. For the same molecule, the “Mean Log10 CFU/g kidney reduction” value ([6]; 30 mg/kg) was 1.57 Log10 CFU/g kidneys, the “MEAN ± SD (Log 10 CFU/ml Bladder)” value ([6]; 30 mg/kg) was 4.80 ± 0.17 Log 10 CFU/ml and the “Mean Log10 CFU/ml Bladder reduction” value ([6]; 30 mg/kg) was 1.69 Log10 CFU/ml. The “Log10 CFU/g (Left Kidney)” value ([6]; 3 mg/kg) was 6.81 Log10 CFU/g and 6.44 Log10 CFU/g and 6.48 Log10 CFU/g, the “Log10 CFU/g (Right Kidney)” value ([6]; 3 mg/kg) was 7.51 Log10 CFU/g and 7.68 Log10 CFU/g and 7.86 Log10 CFU/g and the “Log 10 CFU/ml Bladder” value ([6]; 3 mg/kg) was 5.54 Log 10 CFU/ml and 6.79 Log 10 CFU/ml and 7.00 Log 10 CFU/ml. For the same molecule, the “Log10 CFU/g (Left Kidney)” value ([6]; 10 mg/kg) was 4.69 Log10 CFU/g and 5.68 Log10 CFU/g and 4.80 Log10 CFU/g, the “Log10 CFU/g (Right Kidney)” value ([6]; 10 mg/kg) was 6.66 Log10 CFU/g and 6.13 Log10 CFU/g and 6.97 Log10 CFU/g and the “Log 10 CFU/ml Bladder” value ([6]; 10 mg/kg) was 5.54 Log 10 CFU/ml and 5.97 Log 10 CFU/ml and 6.05 Log 10 CFU/ml. The “Log10 CFU/g (Left Kidney)” value ([6]; 30 mg/kg) was 4.98 Log10 CFU/g and 3.84 Log10 CFU/g and 4.12 Log10 CFU/g, the “Log10 CFU/g (Right Kidney)” value ([6]; 30 mg/kg) was 4.66 Log10 CFU/g and 4.05 Log10 CFU/g and 5.11 Log10 CFU/g and the “Log 10 CFU/ml Bladder” value ([6]; 30 mg/kg) was 4.61 Log 10 CFU/ml and 4.91 Log 10 CFU/ml and 4.90 Log 10 CFU/ml. The “efficacy compared to the 4 h PI control (in words)” value ([6]; rat UTI model, 3 mg/kg) was “bacteriostatic”, the “efficacy with respect to 4 h PI control (in words)” value ([6]; rat UTI model, 10 and 30 mg/kg) was “significant dose dependent” and the “efficacy versus standard drug (in words)” value ([6]; rat UTI model, similar dose (30 mg/kg)) was “comparable to standard drug meropenem”.
